Laboratory results published in US6610648B2, “Malodor counteractant compositions” (Givaudan SA, priority 2000, dated 2003).
“And” between values parts separate entries of the source, which are not always exact repeats. Identical values can stand only once. Counter-ions that a name gives are not always drawn.

Assays:
Parameters in all cases: species or system human
[1] = MOC of sweat malodor on fabric swatches; conditions: Table 6
Protocol: The following fabric treatment solutions were prepared:
1. A solution of ethanol and Cremophor (a hydrogenated ethoxylated castor oil marketed by BASF Corp., Mount Olive, N.J.) containing 10% (wt) of dihexyl fumarate (DHF).
2. A solution of ethanol and Cremophor containing 10% (wt) of OMC.
3. A solution of ethanol and Cremophor containing 5% (wt) of DHF+5% (wt) OMC.
Five (5) fabric swatches were prepared, and labeled A-E. Swatch A was designated as the control swatch with no malodor. 100 μl of sweat malodor was placed in the middle of swatches B-E. Swatch B was designated as the control swatch for the malodor. The swatches were allowed to equilibrate with the malodor for 20 minutes. Onto swatches C-E, the following solutions were sprayed:
The malodor intensity on the cotton swatches was evaluated as follows:
The malodor intensity on swatch B (Malodor Control) was identified as a 5 (overpoweringly strong) on the scale of 1-5 set forth below at every time point, and the rest of swatches were evaluated based on that standard.

[2] = Synthetic axilla malodor on cotton pads, 10-member panel rating of malodor strength; conditions: for Class A + Malodor (strength of the axilla malodor, panel score): 0.4 g ethanolic solution with 10% (wt) test compound on malodor pad, 10-member panel after 3 hours; for Class A + Malodor (strength of the axilla malodor, panel score) / 50% DHF/50% Class A (strength of the axilla malodor, panel score): scale 5 overpowering to 1 not detectable; for 50% DHF/50% Class A (strength of the axilla malodor, panel score): test solution 5% (wt) DHF and 5% (wt) Class A compound, after 3 hours
Protocol: 100 μl of synthetic axilla malodor was placed onto cotton pads. 0.4 g of an ethanolic solution containing 10% (wt) of a test compound identified in Table 1 was placed on each axilla malodor treated cotton pad. Each pad was allowed to dry 15 for minutes, and then evaluated using a 10-member panel after 3 hours. The test cotton pads were randomized, and each panelist was asked to check a box that represented the strength of the axilla malodor using the following scale:
In this example, the MO effect of various mixtures of a Class A MOC compound and a Class B MOC compound (i.e., dihexyl fumarate (“DHF”) as disclosed in Kulka, U.S. Pat. No. 3,074,892) were evaluated using the same test and malodor evaluation procedures as set forth in Example 1. Each test sol ion contained 5% (wt) DHF and 5% (wt) of the Class A compound identified in Table 3. The MOC effect was evaluated as in Example 1.
Various mixtures of OMC (a Class A Compound) and a Class B compound (i.e., various cyclohexyl esters as disclosed in Schleppnik '221) as identified in Table 4 below were made according to the procedure set forth in Example 1. The MOC of each mixture was evaluated using the procedure set forth in Example 1.

[3] = Onion malodor on cotton fabric, 20-member panel; conditions: 0.4 g of 5% OMC in ethanol on cotton pad with 2.5% (wt) onion solution; average of 20 panelists; three hours; scale 1-5
Protocol: (§1) The ability of OMC to reduce the malodor intensity of tobacco smoke, onion, and garlic solutions on cotton fabric was determined.
(§2) Cotton cloth pads were evaluated by 20 panelists to determine how well OMC reduced the perceived odor of tobacco smoke, onion, and garlic solutions on cotton fabric.
(§3) Samples were prepared fresh before each evaluation. A solution of 2.5% (wt) garlic and a solution of 2.5% (wt) onion were both made using 39C alcohol as the solvent. Briefly, 0.4 g of the garlic and onion solutions were each sprayed onto cotton towel pads (100% cotton, 5×5cm). 0.4 g of a test solution containing 5% OMC in ethanol were then sprayed on the onion and garlic-treated cotton pads. The pads were allowed to dry for 15-20 minutes under a fume hood. Each pad was then placed in a blind coded Petri-dish.
(§4) Controls were prepared from cotton pads, which were treated only with the garlic or onion solution (i.e., no OMC test solution).
(§5) The effect of the test solutions on the garlic or onion odors were evaluated by asking a 20-member panel to rate the intensity of the malodor present on the controls and on the treated fabrics using a scale of 1-5 as shown below three hours after the preparation of each sample. The data are average values from the scores by each of the 20 panelists.

[4] = Tobacco smoke malodor on cotton fabric, 20-member panel; conditions: 0.4 gram of 5% (wt) OMC in ethanol on smoke-treated cotton fabric; average of 20 panelists; three hours; scale 1-5
Protocol: as §1, §2, §5
Samples were prepared fresh before each evaluation. Clean pieces of fabric were treated with smoke by placing each fabric piece in a smoked filled environment for 10 minutes. Each piece of fabric was sprayed with 0.4 gram of the 5% (wt) OMC in ethanol test solution set forth above in the garlic and onion example. The treated fabric pieces were left to dry for 15 minutes, and then wrapped in foil.
Controls were prepared from a smoke-treated piece of cloth that was not sprayed with a test solution.
The fabric pieces were evaluated in the same way as described above in the onion and garlic example.

[5] = Garlic malodor on cotton fabric, 20-member panel; conditions: 0.4 g of 5% OMC in ethanol on cotton pad with 2.5% (wt) garlic solution; average of 20 panelists; three hours; scale 1-5
Protocol: as §1, §2, §3, §4, §5

Question: Which results are given for `CCCCCCOC(=O)/C=C/C(=O)OCCCCCC` [Dihexyl Fumarate, reference compound]?
Answer: MOC effect in words, compound alone [1]: had a MOC effect; 10% test (Compound B Alone) malodor score ([2]; 10% Class B compound alone, procedure of Example 1, scale 1-5): 2.6; 5% OMC + 5% Compound B malodor score ([2]; mixture 5% OMC + 5% Class B compound, procedure of Example 1, scale 1-5): 2.3

Question: With `CCCCCCCCCCOC(=O)/C=C/c1ccccc1` [GR 85 3428] as the compound, how does the “Class A + Malodor (strength of the axilla malodor, panel score)” value (“Class A + Malodor” below) [2] read?
Answer: 2.8

Question: And the “50% DHF/50% Class A (strength of the axilla malodor, panel score)” value [2]?
Answer: 3.3

Question: What does the source list for `C/C(=C\c1ccccc1O)C(=O)OCCC(C)CCc1ccccc1` (centres unmarked) [GR 85-1407]?
Answer: Class A + Malodor (strength of the axilla malodor, panel score) [2]: 3.4; 50% DHF/50% Class A (strength of the axilla malodor, panel score) [2]: 3.0

Question: Which results are given for `CC(C)=CCCC(C)CCOC(=O)/C=C/c1ccccc1O` (centres unmarked) [GR 85-2280]?
Answer: Class A + Malodor (strength of the axilla malodor, panel score) [2]: 2.9; 50% DHF/50% Class A (strength of the axilla malodor, panel score) [2]: 3.1

Question: Which results are given for `CC(C)=CCCC(C)CCOC(=O)/C(C#N)=C/c1ccccc1O` (centres unmarked) [GR 85-2661]?
Answer: Class A + Malodor (strength of the axilla malodor, panel score) [2]: 2.9; 50% DHF/50% Class A (strength of the axilla malodor, panel score) [2]: 2.4

Question: For `COc1ccc(OC)c(/C=C/C(=O)OCCC(C)CCC=C(C)C)c1` (centres unmarked) [GR 85-3260], which “Class A + Malodor” value [2] is on record?
Answer: 3.5

Question: What about the “50% DHF/50% Class A (strength of the axilla malodor, panel score)” value [2] of the same compound?
Answer: 2.9

Question: For `COC(=O)/C(C#N)=C/c1ccccc1` [GR 85-3427], which “Class A + Malodor” value [2] is on record?
Answer: 3.0

Question: And the “50% DHF/50% Class A (strength of the axilla malodor, panel score)” value [2]?
Answer: 3.3

Question: Which results are given for `CCCCC(CC)COC(=O)/C=C/c1ccccc1` (centres unmarked) [GR 85-3429]?
Answer: Class A + Malodor (strength of the axilla malodor, panel score) [2]: 3.3; 50% DHF/50% Class A (strength of the axilla malodor, panel score) [2]: 2.8

Question: With `CC(C)=CCCC(C)CCOC(=O)/C=C/c1ccccc1O[Si](C)(C)C` (centres unmarked) [GR 85-3565] as the compound, how does the “Class A + Malodor” value [2] read?
Answer: 2.7

Question: And the “50% DHF/50% Class A (strength of the axilla malodor, panel score)” value [2]?
Answer: 3.1

Question: For `CCCCC(C)COC(=O)C1=Cc2ccc(OC)cc2CC1` (centres unmarked) [GR 85-6495], which “Class A + Malodor” value [2] is on record?
Answer: 2.8

Question: And the “50% DHF/50% Class A (strength of the axilla malodor, panel score)” value [2]?
Answer: 3.0

Question: Which “Class A + Malodor” value [2] does the source give for `CCCCC(C)COC(=O)c1cc2ccccc2oc1=O` (centres unmarked) [GR 85-6924] here?
Answer: 2.9

Question: And the “50% DHF/50% Class A (strength of the axilla malodor, panel score)” value [2]?
Answer: 2.5

Question: With `CCCCC(CC)COC(=O)/C=C/c1ccc(OC)cc1` (centres unmarked) [OMC, Octyl methoxy cinnamate] as the compound, how does the “Malodor intensity, Onion” value [3] read?
Answer: 2.7

Question: What about the “MOC effect in words, compound alone” value [1] of the same compound?
Answer: had a MOC effect

Question: And the “Malodor intensity, Smoke” value [4]?
Answer: 1.8

Question: What about the “Class A + Malodor” value [2] of the same compound?
Answer: 2.6

Question: And the “10% OMC (Alone) malodor score” value ([2]; 10% OMC alone, run beside the Compound B of that line, scale 1-5)?
Answer: 3.1 and 2.6 and 3.0

Question: What about the “MOC effect in words, mixture of Class A and Class B compound versus alone” value ([2]; axilla malodor test pads, Tables 3 and 4) of the same compound?
Answer: acts at least additively with the Class B compounds

Question: And the “50% DHF/50% Class A (strength of the axilla malodor, panel score)” value [2]?
Answer: 2.3

Question: And the “Malodor intensity, Garlic” value [5]?
Answer: 2.6

Question: For `O=C(/C=C/c1ccccc1)OCCc1ccccc1` [PC, Phenylethylcinnamate], which “Class A + Malodor” value [2] is on record?
Answer: 2.2
